{"source": "ChEMBL document CHEMBL1129369", "about": "“Forskolin carbamates: binding and activation studies with type I adenylyl cyclase” (J Med Chem, 1996)", "key": {"[1]": {"target": "T1, Adenylate cyclase type 1 (Homo sapiens, UniProt Q08828)", "test": "Ability to activate the conversion of [32P] ATP to [32P]-cyclic AMP mediated by adenylate cyclase 1", "format": "functional"}, "[2]": {"target": "T1, Adenylate cyclase type 1", "test": "Conversion of [32P] ATP to [32P]-cyclic AMP mediated by adenylate cyclase 1", "format": "functional"}, "[3]": {"target": "T1, Adenylate cyclase type 1", "test": "(§1) Inhibition of [125 I]6-IHPP-forskolin binding to adenylate cyclase 1"}, "[4]": {"target": "T1, Adenylate cyclase type 1", "test": "as §1", "remark": "listed apart in the source"}, "[5]": {"target": "T1, Adenylate cyclase type 1", "test": "Maximum stimulation activity measured with 100 uM forskolin mediated by adenylate cyclase 1", "format": "functional"}}}
{"smiles": "C=C[C@@]1(C)CC(=O)[C@]2(O)[C@@]3(C)[C@@H](O)CCC(C)(C)[C@@H]3[C@H](O)[C@H](OC(=O)NCCC(C)(C)C)[C@@]2(C)O1", "values": [{"measurement": "EC50", "setting": "[1]", "value": "> 2000", "unit": "nM"}, {"measurement": "EC50", "setting": "[2]; read-out: EC50", "value": 9600, "unit": "nM"}, {"measurement": "IC50", "setting": "[3]", "value": 608, "unit": "nM"}, {"measurement": "IC50", "setting": "[4]", "value": "> 150", "unit": "nM"}, {"measurement": "Activity", "setting": "[5]", "value": 58, "unit": "%"}]}
{"smiles": "C=C[C@@]1(C)CC(=O)[C@]2(O)[C@@]3(C)[C@@H](O)CCC(C)(C)[C@@H]3[C@H](OC(=O)NCCc3ccccc3)[C@H](OC(C)=O)[C@@]2(C)O1", "values": [{"measurement": "EC50", "setting": "[1]", "value": "< 2000", "unit": "nM"}, {"measurement": "EC50", "setting": "[2]; read-out: EC50", "value": 1500, "unit": "nM"}, {"measurement": "IC50", "setting": "[3]", "value": 36, "unit": "nM"}, {"measurement": "IC50", "setting": "[4]", "value": "< 150", "unit": "nM"}, {"measurement": "Activity", "setting": "[5]", "value": 65, "unit": "%"}]}
{"smiles": "C=C[C@@]1(C)CC(=O)[C@]2(O)[C@@]3(C)[C@@H](O)CCC(C)(C)[C@@H]3[C@H](OC(=O)NCCO)[C@H](O)[C@@]2(C)O1", "values": [{"measurement": "EC50", "setting": "[1]", "value": "> 2000", "unit": "nM"}, {"measurement": "EC50", "setting": "[2]; read-out: EC50", "value": 3600, "unit": "nM"}, {"measurement": "IC50", "setting": "[3]", "value": 230, "unit": "nM"}, {"measurement": "IC50", "setting": "[4]", "value": "> 150", "unit": "nM"}, {"measurement": "Activity", "setting": "[5]", "value": 85, "unit": "%"}]}
{"smiles": "C=C[C@@]1(C)CC(=O)[C@]2(O)[C@@]3(C)[C@@H](O)CCC(C)(C)[C@@H]3[C@H](OC(=O)NCCc3ccc(N)cc3)[C@H](O)[C@@]2(C)O1", "values": [{"measurement": "EC50", "setting": "[1]", "value": "> 2000", "unit": "nM"}, {"measurement": "EC50", "setting": "[2]; read-out: EC50", "value": 5100, "unit": "nM"}, {"measurement": "IC50", "setting": "[3]", "value": 162, "unit": "nM"}, {"measurement": "IC50", "setting": "[4]", "value": "> 150", "unit": "nM"}, {"measurement": "Activity", "setting": "[5]", "value": 83, "unit": "%"}]}
{"smiles": "C=C[C@@]1(C)CC(=O)[C@]2(O)[C@@]3(C)[C@@H](O)CCC(C)(C)[C@@H]3[C@H](OC(=O)NCCc3ccccn3)[C@H](O)[C@@]2(C)O1", "values": [{"measurement": "EC50", "setting": "[1]", "value": "< 2000", "unit": "nM"}, {"measurement": "EC50", "setting": "[2]; read-out: EC50", "value": 1800, "unit": "nM"}, {"measurement": "IC50", "setting": "[3]", "value": 117, "unit": "nM"}, {"measurement": "IC50", "setting": "[4]", "value": "< 150", "unit": "nM"}, {"measurement": "Activity", "setting": "[5]", "value": 59, "unit": "%"}]}
{"smiles": "C=C[C@@]1(C)CC(=O)[C@]2(O)[C@@]3(C)[C@@H](O)CCC(C)(C)[C@@H]3[C@H](O)[C@H](OC(=O)NCCN)[C@@]2(C)O1", "values": [{"measurement": "EC50", "setting": "[1]", "value": "< 2000", "unit": "nM"}, {"measurement": "EC50", "setting": "[2]; read-out: EC50", "value": 700, "unit": "nM"}, {"measurement": "IC50", "setting": "[3]", "value": 128, "unit": "nM"}, {"measurement": "IC50", "setting": "[4]", "value": "< 150", "unit": "nM"}, {"measurement": "Activity", "setting": "[5]", "value": 85, "unit": "%"}]}
{"smiles": "C=C[C@@]1(C)CC(=O)[C@]2(O)[C@@]3(C)[C@@H](O)CCC(C)(C)[C@@H]3[C@H](OC(=O)NCCO)[C@H](OC(C)=O)[C@@]2(C)O1", "values": [{"measurement": "EC50", "setting": "[1]", "value": "< 2000", "unit": "nM"}, {"measurement": "EC50", "setting": "[2]; read-out: EC50", "value": 500, "unit": "nM"}, {"measurement": "IC50", "setting": "[3]", "value": 142, "unit": "nM"}, {"measurement": "IC50", "setting": "[4]", "value": "< 150", "unit": "nM"}, {"measurement": "Activity", "setting": "[5]", "value": 57, "unit": "%"}]}
{"smiles": "C=C[C@@]1(C)CC(=O)[C@]2(O)[C@@]3(C)[C@@H](O)CCC(C)(C)[C@@H]3[C@H](OC(=O)NCCOC)[C@H](OC(C)=O)[C@@]2(C)O1", "values": [{"measurement": "EC50", "setting": "[1]", "value": "< 2000", "unit": "nM"}, {"measurement": "EC50", "setting": "[2]; read-out: EC50", "value": 700, "unit": "nM"}, {"measurement": "IC50", "setting": "[3]", "value": 32, "unit": "nM"}, {"measurement": "IC50", "setting": "[4]", "value": "< 150", "unit": "nM"}, {"measurement": "Activity", "setting": "[5]", "value": 71, "unit": "%"}]}
{"smiles": "C=C[C@@]1(C)CC(=O)[C@]2(O)[C@@]3(C)[C@@H](O)CCC(C)(C)[C@@H]3[C@H](O)[C@H](OC(=O)NCC3CCCCC3)[C@@]2(C)O1", "values": [{"measurement": "EC50", "setting": "[1]", "value": "> 2000", "unit": "nM"}, {"measurement": "EC50", "setting": "[2]; read-out: EC50", "value": 6400, "unit": "nM"}, {"measurement": "IC50", "setting": "[3]", "value": 1600, "unit": "nM"}, {"measurement": "IC50", "setting": "[4]", "value": "> 150", "unit": "nM"}, {"measurement": "Activity", "setting": "[5]", "value": 44, "unit": "%"}]}
{"smiles": "C=C[C@@]1(C)CC(=O)[C@]2(O)[C@@]3(C)[C@@H](O)CCC(C)(C)[C@@H]3[C@H](OC(=O)NCC3CCCCC3)[C@H](O)[C@@]2(C)O1", "values": [{"measurement": "EC50", "setting": "[1]", "value": "< 2000", "unit": "nM"}, {"measurement": "EC50", "setting": "[2]; read-out: EC50", "value": 1000, "unit": "nM"}, {"measurement": "IC50", "setting": "[3]", "value": 433, "unit": "nM"}, {"measurement": "IC50", "setting": "[4]", "value": "> 150", "unit": "nM"}, {"measurement": "Activity", "setting": "[5]", "value": 51, "unit": "%"}]}
{"smiles": "C=C[C@@]1(C)CC(=O)[C@]2(O)[C@@]3(C)[C@@H](O)CCC(C)(C)[C@@H]3[C@H](OC(=O)NCCC)[C@H](OC(C)=O)[C@@]2(C)O1", "values": [{"measurement": "EC50", "setting": "[1]", "value": "> 2000", "unit": "nM"}, {"measurement": "EC50", "setting": "[2]; read-out: EC50", "value": 4300, "unit": "nM"}, {"measurement": "IC50", "setting": "[3]", "value": 76, "unit": "nM"}, {"measurement": "IC50", "setting": "[4]", "value": "< 150", "unit": "nM"}, {"measurement": "Activity", "setting": "[5]", "value": 80, "unit": "%"}]}
{"smiles": "C=C[C@@]1(C)CC(=O)[C@]2(O)[C@@]3(C)[C@@H](O)CCC(C)(C)[C@@H]3[C@H](OC(=O)NCCc3ccccc3)[C@H](O)[C@@]2(C)O1", "values": [{"measurement": "EC50", "setting": "[1]", "value": "< 2000", "unit": "nM"}, {"measurement": "EC50", "setting": "[2]; read-out: EC50", "value": 1100, "unit": "nM"}, {"measurement": "IC50", "setting": "[3]", "value": 65, "unit": "nM"}, {"measurement": "IC50", "setting": "[4]", "value": "< 150", "unit": "nM"}, {"measurement": "Activity", "setting": "[5]", "value": 72, "unit": "%"}]}
{"smiles": "C=C[C@@]1(C)CC(=O)[C@]2(O)[C@@]3(C)[C@@H](O)CCC(C)(C)[C@@H]3[C@H](OC(=O)NCC3CCCCC3)[C@H](OC(C)=O)[C@@]2(C)O1", "values": [{"measurement": "EC50", "setting": "[1]", "value": "> 2000", "unit": "nM"}, {"measurement": "EC50", "setting": "[2]; read-out: EC50", "value": 6600, "unit": "nM"}, {"measurement": "IC50", "setting": "[3]", "value": 117, "unit": "nM"}, {"measurement": "IC50", "setting": "[4]", "value": "> 150", "unit": "nM"}, {"measurement": "Activity", "setting": "[5]", "value": 74, "unit": "%"}]}
{"smiles": "C=C[C@@]1(C)CC(=O)[C@]2(O)[C@@]3(C)[C@@H](O)CCC(C)(C)[C@@H]3[C@H](OC(=O)NCCN(C)C)[C@H](OC(C)=O)[C@@]2(C)O1", "values": [{"measurement": "EC50", "setting": "[1]", "value": "< 2000", "unit": "nM"}, {"measurement": "EC50", "setting": "[2]; read-out: EC50", "value": 2000, "unit": "nM"}, {"measurement": "IC50", "setting": "[3]", "value": 73, "unit": "nM"}, {"measurement": "IC50", "setting": "[4]", "value": "< 150", "unit": "nM"}, {"measurement": "Activity", "setting": "[5]", "value": 100, "unit": "%"}]}
{"smiles": "C=C[C@@]1(C)CC(=O)[C@]2(O)[C@@]3(C)[C@@H](O)CCC(C)(C)[C@@H]3[C@H](OC(=O)NCCN)[C@H](O)[C@@]2(C)O1", "values": [{"measurement": "EC50", "setting": "[2]", "value": "Indeterminate"}, {"measurement": "IC50", "setting": "[3]", "value": 192, "unit": "nM"}]}
{"smiles": "C=C[C@@]1(C)CC(=O)[C@]2(O)[C@@]3(C)[C@@H](O)CCC(C)(C)[C@@H]3[C@H](O)[C@H](OC(=O)NCCc3ccccn3)[C@@]2(C)O1", "values": [{"measurement": "EC50", "setting": "[1]", "value": "< 2000", "unit": "nM"}, {"measurement": "EC50", "setting": "[2]; read-out: EC50", "value": 1100, "unit": "nM"}, {"measurement": "IC50", "setting": "[3]", "value": 143, "unit": "nM"}, {"measurement": "IC50", "setting": "[4]", "value": "< 150", "unit": "nM"}, {"measurement": "Activity", "setting": "[5]", "value": 91, "unit": "%"}]}
{"smiles": "C=C[C@@]1(C)CC(=O)[C@]2(O)[C@@]3(C)[C@@H](O)CCC(C)(C)[C@@H]3[C@H](O)[C@H](OC(=O)NCC(C)C)[C@@]2(C)O1", "values": [{"measurement": "EC50", "setting": "[1]", "value": "> 2000", "unit": "nM"}, {"measurement": "EC50", "setting": "[2]; read-out: EC50", "value": 2700, "unit": "nM"}, {"measurement": "IC50", "setting": "[3]", "value": 112, "unit": "nM"}, {"measurement": "IC50", "setting": "[4]", "value": "< 150", "unit": "nM"}, {"measurement": "Activity", "setting": "[5]", "value": 72, "unit": "%"}]}
{"smiles": "C=C[C@@]1(C)CC(=O)[C@]2(O)[C@@]3(C)[C@@H](O)CCC(C)(C)[C@@H]3[C@H](OC(=O)NCC(C)C)[C@H](O)[C@@]2(C)O1", "values": [{"measurement": "EC50", "setting": "[1]", "value": "> 2000", "unit": "nM"}, {"measurement": "EC50", "setting": "[2]; read-out: EC50", "value": 2500, "unit": "nM"}, {"measurement": "IC50", "setting": "[3]", "value": 593, "unit": "nM"}, {"measurement": "IC50", "setting": "[4]", "value": "> 150", "unit": "nM"}, {"measurement": "Activity", "setting": "[5]", "value": 88, "unit": "%"}]}
